According to patent US20040023935A1, “Inhalation compositions, methods of use thereof, and process for preparation of same” (Dey, L.P., priority 2002, published 2004):
≈ marks a conversion by molar mass, not a printed value.

Key:
[1] = Amount of fluticasone solubilized in aqueous TPGS composition, by order of addition/mixing; assay type: physicochemical; conditions: target concentration 180 mcg/ml; for solubility: aqueous TPGS composition, aqueous with cosolvent or surfactant or cyclodextrin
Protocol: In one embodiment, the drug is dissolved in the surfactant, such as molten TPGS, and then added to water. For example, when fluticasone propionate is prepared this way with a target concentration of 180 mcg/ml, the amount solubilized by addition of molten TPGS containing the drug to water is about 180 mcg/mL. The amount solubilized by addition of water to molten TPGS, followed by addition of the drug, is only 77 mcg/mL. If the aqueous phase is added to the molten TPGS, the TPGS phase forms a gel and this, apart from making the mixing process slower, makes the amount solubilized lower and variable.
Thus, in Process 1, aqueous phase is added to a solution of the drug in molten TPGS. In Process 2, a solution of the drug in molten TPGS is added to the aqueous phase. To avoid gel formation, the TPGS phase is added to the aqueous phase and slowly. Rapid addition may form gel. Also, high speed mixing reduces the formation of gel.

[2] = Fluticasone solubilized in molten surfactant phase at 60° C.; assay type: physicochemical
Protocol: Whether the cosolvent, if present, is added to either the molten TPGS phase or the aqueous phase prior to mixing of the concentrate and the aqueous phase has been found herein to affect the stability of the resulting diluted composition. […] Cosolvents such as propylene glycol (PG) and polyethylene glycol 400 (PEG 400) can influence the amount solubilized by affecting the amount dissolved in the molten TPGS phase.
However, the order of addition influences the amount of drug that may be solubilized. If PG or PEG 400 is added in the molten TPGS phase before adding the drug, the amount solubilized increases (see Table 6b, below).

Row | solubility ([1]; addition of molten TPGS containing the drug to water) [µg/mL] | solubility ([1]; addition of water to molten TPGS, followed by addition of the drug) [µg/mL] | Amount solubilized as percent of theoretical concentration, Mean ([1]; Process 1 (Aqueous phase added to the TPGS phase all at once and then mixed)) [%] | Amount solubilized as percent of theoretical concentration, Mean ([1]; Process 2 (TPGS phase added to aqueous phase slowly with mixing)) [%] | Fluticasone solubilized in molten surfactant phase at 60° C. ([2]; Surfactant phase: TPGS alone) | Fluticasone solubilized in molten surfactant phase at 60° C. ([2]; Surfactant phase: TPGS and polyethylene glycol 400 (1:1)) | Fluticasone solubilized in molten surfactant phase at 60° C. ([2]; Surfactant phase: TPGS and propylene glycol (2.4:1)) | SMILES
1 | ~180 (≈ 360 µM) | 77 (≈ 154 µM) |  |  |  |  |  | CCC(=O)O[C@]1(C(=O)SCF)[C@H](C)C[C@H]2[C@@H]3C[C@H](F)C4=CC(=O)C=C[C@]4(C)[C@@]3(F)[C@@H](O)C[C@@]21C [fluticasone propionate, (6α,9α,11α,16α,17α)-6,9-difluro-11-hydroxy-16-methyl-3-oxo-17-(1-oxopropoxy)androsta-1,4-diene-17-carbothioic acid, S-fluoromethyl ester]
2 |  |  | 93.64 | 99.53 | 6.5 mg/g of TPGS | 20.0 mg/g of TPGS | 11.9 mg/g of TPGS | C[C@@H]1C[C@H]2[C@@H]3C[C@H](F)C4=CC(=O)C=C[C@]4(C)[C@@]3(F)[C@@H](O)C[C@]2(C)[C@@]1(O)C(=O)SCF [Fluticasone, (6α,9α,11α,16α,17α)-6,9-difluoro-11-hydroxy-16-methyl-3-oxo-17-hydroxyandrosta-1,4-diene-17-carbothioic acid, S-fluoromethyl ester]
